Test results taken from PubChem BioAssay AID1963868 (Molecular Pharmacology Branch, DTP, NCI, 2024).

System: KRAS PDC tumor spheroids (HUVEC+MSC), viability
Assay: Anticancer human tumor 254851-301-R-J1-PDC patient-derived colon carcinoma cell line growth inhibition [KRAS2]
Settings: for IC50: curve of first compound; for viability, T/C: stronger effect = lower value
Description: Multicellular complex tumor spheroid response to RAS pathway inhibitors in combination with a targeted agents in patient-derived cell lines with oncogenic KRAS variants from multiple cancer types
A high-throughput screen of multi-cell type tumor spheroids was designed to identify active combinations of targeted small molecules and KRAS pathway inhibitors. Complex spheroids include a stromal component modeled by human endothelial cells (HUVEC) and fibroblasts modeled by human mesenchymal stem cells (MSCs). The concentration ranges selected for each drug and investigational agent were based upon clinically achievable concentrations if the clinical Cmax of the agent was known.
Compounds. The drugs and investigational agents: BI-3406 (NSC825286), BAY-293 (NSC824723), batoprotafib (TNO155; NSC825523), sotorasib (AMG 510; NSC818433), MRTX1257 (NSC819558), elimusertib (BAY 1895344; NSC800525), molibresib (GSK525762; NSC774829), temuterkib (LY3214996; NSC803410), venetoclax (NSC766270), alisertib (NSC759677), olaparib (NSC753686), talazoparib (NSC767125), erdafitinib (NSC781556), ipatasertib (NSC767898), cabozantinib (NSC761068), nintedanib (NSC756659), abemaciclib (NSC768073), docetaxel (NSC628503), trametinib (NSC758246), and sapanisertib (NSC764658) were obtained from the National Cancer Institute (NCI) Developmental Therapeutics Program Chemical Repository. The FDA-approved anticancer drug set is available from the Developmental Therapeutics Program. […] The stock solutions were prepared in dimethyl sulfoxide (DMSO, Sigma-Aldrich, St. Louis, MO, cat. D2650) at 800-fold the tested concentration and stored at -70 degrees C prior to their use. All drugs and investigational agents were tested over a range starting from a high concentration at or near the clinical Cmax and decreasing in half-log increments. If the clinical Cmax for an agent had not been determined, the highest concentration tested was 10 microM.
Cell Culture. All cells were maintained in an incubator at 37 degrees C and 5% CO2 with 95% humidity. The PDC lines were cultured according to standard operating procedures established by the NCI PDMR (https://pdmr.cancer.gov/sops/default.htm). Briefly, all PDCs were thawed and cultured in Matrigel-coated flasks prepared with a working solution of 1X Ham's F-12 nutrient mix, without supplementation (Invitrogen, Waltham, MA, cat. 11765054), 100 U/mL penicillin-streptomycin (Invitrogen, cat. 15140122), and 2.5% Matrigel (Corning Inc., Corning, NY, cat. 354248) for the first three passages. All PDCs were cultured in complete DMEM/F-12 media containing advanced DMEM/F-12 (Invitrogen, cat. 12634028), 4.9% defined fetal bovine serum, heat inactivated (HyClone Laboratories Inc., Logan, UT, cat. SH30070.03HI), 389 ng/mL hydrocortisone (Sigma-Aldrich, cat. H4001), 9.7 ng/mL human EGF recombinant protein (Invitrogen, cat. PHG0313), 23.4 microg/mL adenine (Sigma-Aldrich, cat. A2786), 97.3 U/mL penicillin-streptomycin (Invitrogen, cat. 15140122), 1.9 mM L-glutamine (Invitrogen, cat. 25030081), and 9.7 microM Y-27632 dihydrochloride (Tocris Bioscience, Bristol, United Kingdom, cat. 1254). The PDCs were cultured in complete DMEM/F12 media without 9.7 microM Y-27632 dihydrochloride for at least two passages prior to the screen. The established cell line HOP-62 was cultured in RPMI 1640 medium, HEPES (Invitrogen, cat. 22400105) with 10% defined fetal bovine serum (HyClone Laboratories Inc., cat. SH30070.03) and 2 mM L-glutamine (Invitrogen, cat. 25030081). The pooled donor HUVEC were cultured in endothelial cell growth medium 2 (PromoCell, Heidelberg, Germany, cat. C-22011) and the hMSC were cultured in mesenchymal stem cell growth medium 2 (PromoCell, cat. C-28009). For all experiments, HUVEC and hMSC were used at passages </=5, while the malignant cell lines were used at passages </=15. […]

[1] = second compound 0.1 µM, first compound 0.0316 µM
[2] = second compound 0.1 µM, first compound 0.1 µM
[3] = second compound 0.316 µM, first compound 0.0316 µM
[4] = second compound 0.316 µM, first compound 0.1 µM
[5] = second compound 1 µM, first compound 0.0316 µM
[6] = second compound 1 µM, first compound 0.1 µM
[7] = second compound 3.16 µM, first compound 0.0316 µM
[8] = second compound 3.16 µM, first compound 0.1 µM
[9] = second compound 10 µM, first compound 0.0316 µM
[10] = second compound 10 µM, first compound 0.1 µM
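Also: spheroids exposed to compounds for seven days before readout.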
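For viability, T/C in this document: 100% = DMSO vehicle control luminescence of the spheroids.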

## CN(C)C/C=C/C(=O)Nc1cc2c(Nc3ccc(F)c(Cl)c3)ncnc2cc1O[C@H]1CCOC1 + C=CC(=O)N1CCN(c2nc(=O)n(-c3c(C)ccnc3C(C)C)c3nc(-c4c(O)cccc4F)c(F)cc23)C(C)C1
Second compound 0.1 µM
  IC50: > 0.1 µM
Second compound 0.316 µM
  IC50: > 0.1 µM
Second compound 1 µM
  IC50: > 0.1 µM
Second compound 3.16 µM
  IC50: > 0.1 µM
Second compound 10 µM
  IC50: > 0.1 µM
Second compound 0.1 µM, first compound 0.000316 µM
  viability, T/C: 110%
Second compound 0.1 µM, first compound 0.001 µM
  viability, T/C: 103%
Second compound 0.1 µM, first compound 0.00316 µM
  viability, T/C: 99.5%
Second compound 0.1 µM, first compound 0.01 µM
  viability, T/C: 93.8%
[1]
  viability, T/C: 97.2%
[2]
  viability, T/C: 93%
Second compound 0.316 µM, first compound 0.000316 µM
  viability, T/C: 104%
Second compound 0.316 µM, first compound 0.001 µM
  viability, T/C: 102%
Second compound 0.316 µM, first compound 0.00316 µM
  viability, T/C: 96.5%
Second compound 0.316 µM, first compound 0.01 µM
  viability, T/C: 89.6%
[3]
  viability, T/C: 93.4%
[4]
  viability, T/C: 75.2%
Second compound 1 µM, first compound 0.000316 µM
  viability, T/C: 99.5%
Second compound 1 µM, first compound 0.001 µM
  viability, T/C: 108%
Second compound 1 µM, first compound 0.00316 µM
  viability, T/C: 86.1%
Second compound 1 µM, first compound 0.01 µM
  viability, T/C: 87.2%
[5]
  viability, T/C: 83.6%
[6]
  viability, T/C: 73.5%
Second compound 3.16 µM, first compound 0.000316 µM
  viability, T/C: 101%
Second compound 3.16 µM, first compound 0.001 µM
  viability, T/C: 98.7%
Second compound 3.16 µM, first compound 0.00316 µM
  viability, T/C: 87.1%
Second compound 3.16 µM, first compound 0.01 µM
  viability, T/C: 93.8%
[7]
  viability, T/C: 100%
[8]
  viability, T/C: 82.5%
Second compound 10 µM, first compound 0.000316 µM
  viability, T/C: 109%
Second compound 10 µM, first compound 0.001 µM
  viability, T/C: 99.3%
Second compound 10 µM, first compound 0.00316 µM
  viability, T/C: 91.9%
Second compound 10 µM, first compound 0.01 µM
  viability, T/C: 94.6%
[9]
  viability, T/C: 95.6%
[10]
  viability, T/C: 74.4%

## O=C(c1cc(Cc2n[nH]c(=O)c3ccccc23)ccc1F)N1CCN(C(=O)C2CC2)CC1 + C=CC(=O)N1CCN(c2nc(=O)n(-c3c(C)ccnc3C(C)C)c3nc(-c4c(O)cccc4F)c(F)cc23)C(C)C1
Second compound 0.1 µM
  IC50: > 10 µM
Second compound 0.316 µM
  IC50: > 10 µM
Second compound 1 µM
  IC50: > 10 µM
Second compound 3.16 µM
  IC50: > 10 µM
Second compound 10 µM
  IC50: > 10 µM
[1]
  viability, T/C: 104%
[2]
  viability, T/C: 100%
Second compound 0.1 µM, first compound 0.316 µM
  viability, T/C: 101%
Second compound 0.1 µM, first compound 1 µM
  viability, T/C: 103%
Second compound 0.1 µM, first compound 3.16 µM
  viability, T/C: 95.6%
Second compound 0.1 µM, first compound 10 µM
  viability, T/C: 89.5%
[3]
  viability, T/C: 116%
[4]
  viability, T/C: 104%
Second compound 0.316 µM, first compound 0.316 µM
  viability, T/C: 96%
Second compound 0.316 µM, first compound 1 µM
  viability, T/C: 97%
Second compound 0.316 µM, first compound 3.16 µM
  viability, T/C: 101%
Second compound 0.316 µM, first compound 10 µM
  viability, T/C: 97.2%
[5]
  viability, T/C: 111%
[6]
  viability, T/C: 101%
Second compound 1 µM, first compound 0.316 µM
  viability, T/C: 111%
Second compound 1 µM, first compound 1 µM
  viability, T/C: 104%
Second compound 1 µM, first compound 3.16 µM
  viability, T/C: 106%
Second compound 1 µM, first compound 10 µM
  viability, T/C: 92%
[7]
  viability, T/C: 106%
[8]
  viability, T/C: 102%
Second compound 3.16 µM, first compound 0.316 µM
  viability, T/C: 105%
Second compound 3.16 µM, first compound 1 µM
  viability, T/C: 100%
Second compound 3.16 µM, first compound 3.16 µM
  viability, T/C: 102%
Second compound 3.16 µM, first compound 10 µM
  viability, T/C: 95.7%
[9]
  viability, T/C: 107%
[10]
  viability, T/C: 114%
Second compound 10 µM, first compound 0.316 µM
  viability, T/C: 105%
Second compound 10 µM, first compound 1 µM
  viability, T/C: 110%
Second compound 10 µM, first compound 3.16 µM
  viability, T/C: 101%
Second compound 10 µM, first compound 10 µM
  viability, T/C: 107%
